From ChEMBL document CHEMBL2046309, “Semi-synthesis and bio-evaluation of polybrominated diphenyl ethers from the sponge Dysidea herbacea” (Bioorg Med Chem Lett, 2012)
≈ marks a conversion by molar mass, not a printed value. Calls of active or inactive are those of the source. The calls are words filed in the database; no cut-off is given here.

Experiments:
HL-60 = test: Cytotoxicity against human HL60 cells assessed as decrease in cell number after 24 hrs by MTT assay; assay type: functional, cell-based; details: HL-60, 24 h
U-937 = test: Cytotoxicity against human U937 cells assessed as decrease in cell number after 24 hrs by MTT assay; assay type: functional, cell-based; details: U-937, 24 h
Escherichia coli = test: Antibacterial activity against Escherichia coli by paper disc assay method; assay type: functional, organism-based
Pseudomonas syringae = test: Antibacterial activity against Pseudomonas syringae by paper disc assay method; assay type: functional, organism-based
Staphylococcus aureus = test: Antibacterial activity against Staphylococcus aureus by paper disc assay method; assay type: functional, organism-based
Bacillus subtilis = test: Antibacterial activity against Bacillus subtilis by paper disc assay method; assay type: functional, organism-based
Artemia = test: Toxicity in brine shrimps; assay type: organism-based; details: in vivo

Compound	IC50 (HL-60) [µg/mL]	IC50 (U-937) [µg/mL]	other results
Brc1ccc(Oc2cc(Br)cc(Br)c2OCCCCCN2CCN(C/C=C/c3ccccc3)CC2)c(Br)c1	47.2 (≈ 61.1 µM)	32.7 (≈ 42.3 µM)	–
BrCCCCCOc1c(Br)cc(Br)cc1Oc1ccc(Br)cc1Br	25.7 (≈ 39.5 µM)	29.5 (≈ 45.3 µM)	–
C=CCOc1c(Br)cc(Br)cc1Oc1ccc(Br)cc1Br	27.9 (≈ 51.5 µM)	29 (≈ 53.5 µM)	–
COc1c(Br)cc(Br)cc1Oc1ccc(Br)cc1Br	28.2 (≈ 54.7 µM)	34.5 (≈ 66.9 µM)	Activity (Escherichia coli): Active; Activity (Pseudomonas syringae): Active; Activity (Staphylococcus aureus): Active; Activity (Bacillus subtilis): Active; LC50 (Artemia): 19.28 ppm
CC(C)(C)C(=O)C(C#N)Oc1c(Br)cc(Br)cc1Oc1ccc(Br)cc1Br (stereo not drawn)	29.2 (≈ 46.7 µM)	32.5 (≈ 52 µM)	–
Oc1c(Br)cc(Br)cc1Oc1ccc(Br)cc1Br	19.3 (≈ 38.5 µM)	22.5 (≈ 44.8 µM)	LC50 (Artemia): 12.8 ppm
CC(=O)Oc1c(Br)cc(Br)cc1Oc1ccc(Br)cc1Br	29.9 (≈ 55 µM)	32.3 (≈ 59.4 µM)	Activity (Escherichia coli): Active; Activity (Pseudomonas syringae): Active; Activity (Staphylococcus aureus): Active; Activity (Bacillus subtilis): Active; LC50 (Artemia): 23.28 ppm
CN1CCN(CCCCCOc2c(Br)cc(Br)cc2Oc2ccc(Br)cc2Br)CC1	48.3 (≈ 72.1 µM)	49.1 (≈ 73.3 µM)	–
Brc1ccc(Oc2cc(Br)cc(Br)c2OCc2ccccc2)c(Br)c1	27.9 (≈ 47.1 µM)	29 (≈ 49 µM)	–
Brc1ccc(Oc2cc(Br)cc(Br)c2OCCCCCN2CCN(c3ccccc3)CC2)c(Br)c1	41.6 (≈ 56.8 µM)	42.5 (≈ 58 µM)	–
CC(C)(C)OC(=O)N1CCN(CCCCCOc2c(Br)cc(Br)cc2Oc2ccc(Br)cc2Br)CC1	32.1 (≈ 42.5 µM)	35.5 (≈ 46.9 µM)	–
OCCCOc1c(Br)cc(Br)cc1Oc1ccc(Br)cc1Br	29.9 (≈ 53.4 µM)	32.3 (≈ 57.7 µM)	–
BrCCOc1c(Br)cc(Br)cc1Oc1ccc(Br)cc1Br	26.2 (≈ 43 µM)	32.5 (≈ 53.4 µM)	–
BrCCCCOc1c(Br)cc(Br)cc1Oc1ccc(Br)cc1Br	25.9 (≈ 40.7 µM)	29 (≈ 45.5 µM)	–
BrCCCCCCOc1c(Br)cc(Br)cc1Oc1ccc(Br)cc1Br	37.8 (≈ 56.9 µM)	33.8 (≈ 50.8 µM)	–
COc1ccccc1N1CCN(CCCCCOc2c(Br)cc(Br)cc2Oc2ccc(Br)cc2Br)CC1	32.2 (≈ 42.2 µM)	37.5 (≈ 49.2 µM)	–
CCOC(=O)C(C)Oc1c(Br)cc(Br)cc1Oc1ccc(Br)cc1Br (stereo not drawn)	35.7 (≈ 59.3 µM)	39.5 (≈ 65.6 µM)	–
Brc1ccc(Oc2cc(Br)cc(Br)c2OCCCCCN2CCOCC2)c(Br)c1	50.5 (≈ 76.9 µM)	39.8 (≈ 60.6 µM)	–
C#CCOc1c(Br)cc(Br)cc1Oc1ccc(Br)cc1Br	29.7 (≈ 55 µM)	29.5 (≈ 54.6 µM)	–
BrCCCOc1c(Br)cc(Br)cc1Oc1ccc(Br)cc1Br	29.9 (≈ 48 µM)	30.3 (≈ 48.7 µM)	–
OCCOc1c(Br)cc(Br)cc1Oc1ccc(Br)cc1Br	28.2 (≈ 51.7 µM)	34.5 (≈ 63.2 µM)	–
Cc1ccc(S(=O)(=O)n2nc(N3CCN(CCCCCOc4c(Br)cc(Br)cc4Oc4ccc(Br)cc4Br)CC3)c3cc([N+](=O)[O-])ccc32)cc1	52.5 (≈ 54 µM)	68.5 (≈ 70.5 µM)	–
CC(C)(C)OC(=O)N1CCCN(CCCCCOc2c(Br)cc(Br)cc2Oc2ccc(Br)cc2Br)CC1	44.8 (≈ 58.2 µM)	39.5 (≈ 51.3 µM)	–
COc1cc([C@@H]2c3cc4c(cc3[C@@H](O[C@@H]3O[C@@H]5CO[C@@H](C)O[C@H]5[C@H](O)[C@H]3O)[C@H]3COC(=O)[C@H]23)OCO4)cc(OC)c1O [ETOPOSIDE]	1.1 (≈ 1.87 µM)	–	–
